In patent US20050019825A9, “Common ligand mimics: pseudothiohydantoins” (priority 2002, published 2005) one finds IC50 and inhibition data, which are given here for 5 molecules.

Molecules are shown by their SMILES. Like-named read-outs stand apart in the source and are kept apart here.

Experiment [1] concerns the target dihydrofolate reductase (DHFR) (UniProt P00374). Put plainly: DHFR kinetic assay, spectrophotometric oxidation of NADH (340 nm). It is filed as biochemical. The procedure: For DHFR analysis, the compounds were screened using a kinetic protocol that spectrophotometrically evaluates oxidation of NADH.
Stock solutions of each of the reagents were prepared in the following concentrations. Dilutions of the stock solutions were prepared prior to running the assay in the concentrations indicated below. H2 folate was dissolved in DMSO to about 10 mM and then diluted with water to a concentration of 0.1 mM.
The DHFR reaction was monitored at 340 nm prior to and after addition of the inhibitor to detect background reaction with the inhibitor. Solutions of 100 μl of the inhibitors in DMSO were prepared to provide a final DMSO concentration of 5% of the total assay volume. These solutions were incubated for 6 minutes at 25° C. in a 992 μl of a solution containing 0.1 M Tris-HCl, pH 7.0, 150 mM KCl, 5 μM H2 folate, and 52 μM NADH. The oxidation reaction was then initiated with 8 μl of DHFR (0.047 mg/ml). After the enzyme was added, the solution was mixed for 20 seconds, and the reaction was run for 10 minutes. After a 50 second lag, the samples were read in a Cary spectrophotometer at 340 nm. Reading of the samples was continued until 300 seconds. Cuvette #1 always contained the control reaction (no inhibitor), and cuvette #2 always contained the positive control reaction in which Cibacron Blue at 3 μM was substituted for inhibitor to yield 50 to 70% inhibition. The substrate was kept at a level at least 10 times the Km.

The target in experiment [2] is 1-deoxy-D-xylulose-5-phosphate reductase (DOXPR) (Escherichia coli, UniProt P45568). Put plainly: DOXPR kinetic assay, spectrophotometric oxidation of NADPH (340 nm). The class given is biochemical. The procedure:
For DOXPR analysis, the compounds were screened using a kinetic protocol that spectrophotometrically evaluates oxidation of NADPH.
Stock solutions of each of the reagents were prepared in the following concentrations. Dilutions of the stock solutions were prepared prior to running the assay in the concentrations indicated below. DOXPR was diluted in 10 mM HEPES at a pH of 7.4.
The DOXPR reaction was monitored at 340 nm prior to and after addition of the inhibitor to detect background reaction with the inhibitor. Solutions of the inhibitors in DMSO were prepared to provide a final DMSO concentration of 5% of the total assay volume. These solutions were incubated for 6 minutes at 25° C. in a 990 μl of a solution containing 0.1 M HEPES, pH 7.4, 1 mM MnCl2 1.15 mM DOXP, and 8 μM NADPH. The oxidation reaction was then initiated with 10 μl of DOXP reductoisomerase (10 μg/ml). After the enzyme was added, the solution was mixed for 20 seconds, and the reaction was run for 10 minutes. After a 50 second lag, the samples were read in a Cary spectrophotometer at 340 nm. Reading of the samples was continued until 300 seconds. Cuvette #1 contained the control reaction (no inhibitor), and cuvette #2 contained the positive control reaction in which Cibacron Blue at 10.32 μM was substituted for inhibitor to yield 70 to 80% inhibition. The substrate was kept at a level at least 10 times the Km.

Experiment [3] addresses T1, lactate dehydrogenase (LDH) (Oryctolagus cuniculus, UniProt P13491).
T1 construct: 10 μl of LDH from Rabbit Muscle; from tissue; host or cells: rabbit muscle
Nature of the experiment: LDH kinetic assay, spectrophotometric oxidation of NADH (340 nm). The class given is biochemical, Rabbit. To be noted: for IC50: common ligand mimics, Examples 23/24, LDH from Rabbit Muscle. The procedure: For LDH analysis, the compounds were screened using a kinetic protocol that spectrophotometrically evaluates oxidation of NADH.
Stock solutions of each of the reagents were prepared in the following concentrations. Dilutions of the stock solutions were prepared prior to running the assay in the concentrations indicated below.
The LDH reaction was monitored at 340 nm prior to and after addition of the inhibitor to detect background reaction with the inhibitor. Solutions of 100 μl of the inhibitors in DMSO were prepared to provide a final DMSO concentration of 5% of the total assay volume. These solutions were incubated for 6 minutes at 25° C. in a 990 μl of a solution containing 0.1 M HEPES, pH 7.4, 10 μM NADH, and 2.5 mM of pyruvate. The reaction was then initiated with 10 μl of LDH from Rabbit Muscle (0.5 μg/ml; 1:2000 dilution of 1.0 mg/ml). After the enzyme was added, the solution was mixed for 20 seconds, and the reaction was run for 10 minutes. After a 50 second lag, the samples were read in a Cary spectrophotometer at 340 nm. Reading of the samples was continued until 300 seconds. Cuvette #1 contained the control reaction (no inhibitor), and cuvette #2 contained the positive control reaction in which Cibacron Blue at 10.3 μM was substituted for inhibitor to yield 50 to 70% inhibition. The substrate was kept at a level at least 10 times the Km.

Where [4] appears, read: common ligand mimics, Examples 23/24; read-out: IC50 for DHFR.
Where [5] appears, read: common ligand mimics, Examples 23/24, read-out: IC50 for DOXPR.
Where [6] appears, read: read-out: IC50 for DHFR; common ligand mimics, Examples 23/24.

Chain of 1-deoxy-D-xylulose-5-phosphate reductase (DOXPR) (P45568 whole entry): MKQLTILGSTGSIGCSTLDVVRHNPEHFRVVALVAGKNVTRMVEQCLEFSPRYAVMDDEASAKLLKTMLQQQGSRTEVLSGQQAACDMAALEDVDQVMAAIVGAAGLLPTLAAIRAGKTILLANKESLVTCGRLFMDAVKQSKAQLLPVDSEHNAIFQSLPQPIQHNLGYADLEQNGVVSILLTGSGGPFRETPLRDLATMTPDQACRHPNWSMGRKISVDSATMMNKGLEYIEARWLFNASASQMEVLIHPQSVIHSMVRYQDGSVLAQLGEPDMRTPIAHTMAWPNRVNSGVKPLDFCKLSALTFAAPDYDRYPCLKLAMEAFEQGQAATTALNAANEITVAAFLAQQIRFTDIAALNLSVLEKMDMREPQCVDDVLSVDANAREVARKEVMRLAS
Chain of dihydrofolate reductase (DHFR) (P00374 whole entry): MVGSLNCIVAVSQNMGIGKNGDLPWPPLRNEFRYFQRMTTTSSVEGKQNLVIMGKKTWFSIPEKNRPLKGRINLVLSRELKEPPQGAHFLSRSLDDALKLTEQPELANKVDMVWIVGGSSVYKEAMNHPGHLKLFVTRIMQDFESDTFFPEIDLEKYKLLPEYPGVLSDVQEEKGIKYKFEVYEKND

Regarding `N=C1NC(=O)C(=Cc2ccc(C(=O)O)cc2)S1` [4-(2-imino-4-oxo-thiazolidin-5-ylidenemethyl)-benzoic acid], the IC50 (commonly the concentration that inhibits the measured activity by half) is above 20 µM in experiment [1] (setting [4]), above 25 µM in experiment [2] (setting [5]) and above 100 µM in experiment [3].

As to `COc1cc(O)ccc1C=C1SC(=N)NC1=O` [5-(4-hydroxy-2-methoxy-benzylidene)-2-imino-thiazolidin-4-one], the IC50 in experiment [1] (setting [4]) and in experiment [2] (setting [5]) was above 100 µM throughout.

For the molecule `COc1cc(C=C2SC(N)=NC2=O)ccc1O` [5-(4-hydroxy-3-methoxy-benzylidene)-2-imino-thiazolidin-4-one], the IC50 in experiment [1] (setting [6]), in experiment [2] and in experiment [3] was above 100 µM throughout.

On to `N=C1NC(=O)C(=Cc2ccc(O)c([N+](=O)[O-])c2)S1` [5-(4-hydroxy-3-nitro-benzylidene)-2-imino-thiazolidin-4-one], for which the IC50 is above 75 µM in experiment [1] (setting [6]), above 100 µM in experiment [2] and 27.9 µM in experiment [3].

Consider `Nc1c(S(=O)(=O)O)cc(Nc2ccc(Nc3nc(Cl)nc(Nc4ccccc4S(=O)(=O)O)n3)c(S(=O)(=O)O)c2)c2c1C(=O)c1ccccc1C2=O` [Cibacron Blue, reference compound], for which, in experiment [2] (Cibacron Blue at 10.32 μM, read-out: inhibition of DOXPR, positive control), the inhibition – broadly, the percentage by which the read-out fell short of the control – at 10.32 µM was in the range of 70 to 80%. In experiment [3] (Cibacron Blue at 10.3 μM, read-out: inhibition of LDH, positive control), the inhibition at 10.3 µM was 50 to 70%.
